Here are results for 2 compounds from US9296703B2, “Substituted N-(3-(pyrimidin-4-yl)phenyl)acrylamide analogs as tyrosine receptor kinase BTK inhibitors” (University of Utah Research Foundation, priority 2012, dated 2016).

This assay deals with recombinant full-length human BTK kinase (Homo sapiens (Human), UniProt Q06187). The experiment in a line: BTK kinase assay: ADP generation assay (ADP-Glo). It is filed as biochemical. The following applies: 60 nM BTK, 1.6 μM ATP, 20 μM MBP substrate, 60 min at room temperature. As for the experimental part:
The primary assay for compound inhibitory activity was the ADP generation assay described herein. Test compounds were diluted to desired concentrations in kinase reaction buffer and briefly incubated with recombinant full-length human BTK kinase with a (His)6 tag (81.3 kDa; Invitrogen Corporation, Carlsbad, Calif.). The assay as described is based on volumes used in a standard 384 well format using solid, white-wall plates. The reaction was subsequently initiated by the addition of ATP and myelin basic protein (MBP) substrate (Millipore Corporation, Waltham, Mass.). Composition of the assay reaction mixture ([…]) was: 5% v/v DMSO, 60 nM BTK, 1.6 μM ATP, and 20 μM MBP substrate. […] Luminescence was measured on an EnVision® microplate reader (PerkinElmer). The amount of luminescence from each reaction is directly correlated with BTK kinase activity. Percent inhibition and IC50 values were calculated by comparing enzyme activity in drug-treated wells to the appropriate controls.
IC50 values are determined using GraphPad Prism 5 software. […]
Activity (IC50) was determined in the BTK assays describe herein above, i.e. either the ADP generation assay and/or the time-resolved FRET assay, and the data are shown in Table III. […]

Chain of recombinant full-length human BTK kinase (Q06187 whole entry): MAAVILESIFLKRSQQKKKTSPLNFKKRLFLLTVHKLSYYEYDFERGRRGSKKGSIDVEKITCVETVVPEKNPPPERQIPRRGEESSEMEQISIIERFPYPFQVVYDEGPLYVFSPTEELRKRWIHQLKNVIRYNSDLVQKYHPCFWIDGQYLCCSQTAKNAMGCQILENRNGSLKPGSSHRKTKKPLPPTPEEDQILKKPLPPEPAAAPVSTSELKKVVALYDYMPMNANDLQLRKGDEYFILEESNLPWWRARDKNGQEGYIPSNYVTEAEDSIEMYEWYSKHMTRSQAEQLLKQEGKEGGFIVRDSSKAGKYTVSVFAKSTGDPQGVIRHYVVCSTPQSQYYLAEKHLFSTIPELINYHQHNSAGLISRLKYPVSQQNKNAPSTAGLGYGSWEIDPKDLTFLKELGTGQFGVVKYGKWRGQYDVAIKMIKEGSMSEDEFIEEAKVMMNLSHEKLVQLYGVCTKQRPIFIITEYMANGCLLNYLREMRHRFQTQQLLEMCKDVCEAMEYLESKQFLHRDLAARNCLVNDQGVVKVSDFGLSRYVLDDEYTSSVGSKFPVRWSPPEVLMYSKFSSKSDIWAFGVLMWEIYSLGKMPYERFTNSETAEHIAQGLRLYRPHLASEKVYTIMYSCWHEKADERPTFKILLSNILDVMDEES

`C=CC(=O)Nc1cccc(-c2nc(Nc3ccc(N4CCOCC4)c(O)c3)ncc2Cl)c1` [Compound 1, N-(3-(5-chloro-2-((3-hydroxy-4-morpholinophenyl)amino)pyrimidin-4-yl)phenyl)acrylamide]: the half-maximal inhibitory concentration (IC50) (commonly the concentration needed to halve the response being measured) came to 0.004 µM.

As to `C=CC(=O)Nc1cccc(-c2nc(Nc3ccc(N4CCOCC4)c(OP(=O)(OC(C)C)OC(C)C)c3)ncc2Cl)c1` [Compound 2, 5-((4-(3-acrylamidophenyl)-5-chloropyrimidin-2-yl)amino)-2 - morpholinophenyl diisopropyl phosphate], the IC50 turned out to be 3.58 µM.
